Measurements taken from publication PMC3306125 (Journal of Medicinal Chemistry, 2012).

Key:
[1] = tested on: Topo II-DNA cleavage complexes; experiment: Cellular Topo II inhibition; format: cell-based, human; conditions: 90 nM DAU, 130 nM 7, […] 12b; for stabilized Topo II-DNA cleavage complexes, 30 min treatment: DU-145, 30 min; for stabilized Topo II-DNA cleavage complexes, 72 hour treatment: DU-145, 72 h
[2] = tested on: acetyl tubulin; experiment: Western blot of tubulin acetylation in DU-145 cells; conditions: DU-145, 4 h; DAU 90, 500 nM; 7 130, 500 nM; 12b 1.31, 10 μM
[3] = tested on: topoisomerase II; experiment: KDNA decatenation assay; format: biochemical; conditions: 50 μM drug, 10 min at 37°C, gel
[4] = tested on: HeLa cell nuclear extract HDACs (HDAC 1/2); experiment: In vitro HDAC inhibition, HeLa nuclear extract; format: biochemical; conditions: relative to 12a
[5] = tested on: acetylated histones H4 and H3; experiment: Western blot of histone H4 and H3 acetylation in DU-145 cells; format: cell-based, human; conditions: DU-145, 24 h; SAHA 2.5, 5 μM; DAU 0.1, 0.5 μM; 7 0.5, 1 μM; 12b 2.5, 5 μM
[6] = target: T1, HDAC 6 (Homo sapiens, UniProt Q9UBN7); experiment: Recombinant HDAC 6 inhibition; format: biochemical
T1 sequence (Q9UBN7 1-1215): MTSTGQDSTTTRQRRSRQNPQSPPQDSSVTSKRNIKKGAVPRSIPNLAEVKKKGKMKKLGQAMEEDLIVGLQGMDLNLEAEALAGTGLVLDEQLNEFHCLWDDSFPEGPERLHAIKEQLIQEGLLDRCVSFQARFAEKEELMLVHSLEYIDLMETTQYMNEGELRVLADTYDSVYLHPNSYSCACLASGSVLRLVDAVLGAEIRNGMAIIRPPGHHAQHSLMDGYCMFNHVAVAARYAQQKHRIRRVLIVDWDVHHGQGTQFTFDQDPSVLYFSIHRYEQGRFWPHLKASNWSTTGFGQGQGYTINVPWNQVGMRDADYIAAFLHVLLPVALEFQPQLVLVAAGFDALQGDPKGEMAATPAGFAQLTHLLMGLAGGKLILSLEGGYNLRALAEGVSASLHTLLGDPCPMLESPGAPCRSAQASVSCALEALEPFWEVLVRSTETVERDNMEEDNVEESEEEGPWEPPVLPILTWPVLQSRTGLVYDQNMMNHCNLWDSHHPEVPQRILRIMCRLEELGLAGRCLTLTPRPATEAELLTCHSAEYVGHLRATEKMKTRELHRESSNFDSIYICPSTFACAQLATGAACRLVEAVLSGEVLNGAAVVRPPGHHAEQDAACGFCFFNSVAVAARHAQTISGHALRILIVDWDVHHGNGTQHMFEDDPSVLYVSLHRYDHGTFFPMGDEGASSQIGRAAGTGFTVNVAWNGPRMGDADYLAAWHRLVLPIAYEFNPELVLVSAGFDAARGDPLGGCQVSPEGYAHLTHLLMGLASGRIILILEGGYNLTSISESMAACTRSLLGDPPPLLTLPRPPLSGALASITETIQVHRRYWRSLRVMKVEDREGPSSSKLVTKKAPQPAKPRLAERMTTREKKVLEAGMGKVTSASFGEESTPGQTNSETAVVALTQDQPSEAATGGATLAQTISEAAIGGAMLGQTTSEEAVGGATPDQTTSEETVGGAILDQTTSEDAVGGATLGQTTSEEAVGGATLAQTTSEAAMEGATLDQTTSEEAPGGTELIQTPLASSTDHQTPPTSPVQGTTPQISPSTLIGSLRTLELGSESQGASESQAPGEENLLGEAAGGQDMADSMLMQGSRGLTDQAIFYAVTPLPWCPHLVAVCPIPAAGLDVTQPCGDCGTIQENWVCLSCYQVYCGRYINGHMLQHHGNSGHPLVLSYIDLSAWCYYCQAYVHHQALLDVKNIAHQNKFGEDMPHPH

[7] = target: HDAC 1 (Homo sapiens, UniProt Q13547); experiment: Recombinant HDAC 1 inhibition; conditions: 12c vs 12a
HDAC 1, sequence (Q13547 whole entry): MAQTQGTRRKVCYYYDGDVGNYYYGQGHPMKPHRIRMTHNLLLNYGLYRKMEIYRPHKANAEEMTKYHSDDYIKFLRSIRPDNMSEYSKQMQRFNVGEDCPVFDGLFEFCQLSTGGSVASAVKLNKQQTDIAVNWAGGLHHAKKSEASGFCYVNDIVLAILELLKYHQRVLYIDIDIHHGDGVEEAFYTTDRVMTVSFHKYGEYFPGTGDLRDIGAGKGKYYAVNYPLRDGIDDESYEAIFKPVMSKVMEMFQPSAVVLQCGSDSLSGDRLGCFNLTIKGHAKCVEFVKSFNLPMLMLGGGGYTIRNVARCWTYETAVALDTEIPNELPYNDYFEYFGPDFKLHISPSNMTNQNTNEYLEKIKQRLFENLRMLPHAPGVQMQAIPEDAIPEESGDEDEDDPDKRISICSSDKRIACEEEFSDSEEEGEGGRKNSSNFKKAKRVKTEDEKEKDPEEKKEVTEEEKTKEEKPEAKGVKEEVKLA

[8] = target: T2, HDAC 8 (Homo sapiens, UniProt Q9BY41); experiment: Recombinant HDAC 8 inhibition; conditions: HDAC 8 vs HDAC 1
T2 sequence (Q9BY41 1-377): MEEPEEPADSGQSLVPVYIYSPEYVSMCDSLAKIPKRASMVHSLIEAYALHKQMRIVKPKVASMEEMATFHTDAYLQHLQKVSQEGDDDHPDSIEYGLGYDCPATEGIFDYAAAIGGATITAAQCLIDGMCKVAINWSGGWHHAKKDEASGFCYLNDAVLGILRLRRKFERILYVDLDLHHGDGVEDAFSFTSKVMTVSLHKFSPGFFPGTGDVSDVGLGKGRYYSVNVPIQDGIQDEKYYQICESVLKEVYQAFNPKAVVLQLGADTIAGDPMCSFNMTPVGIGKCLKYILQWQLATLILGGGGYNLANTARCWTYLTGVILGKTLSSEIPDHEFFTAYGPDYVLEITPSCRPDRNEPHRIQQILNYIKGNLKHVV

SMILES | stabilized Topo II-DNA cleavage complexes, 30 min treatment [1] | stabilized Topo II-DNA cleavage complexes, 72 hour treatment [1] | tubulin acetylation (immunoblot) [2] | Topo II inhibition (KDNA decatenation) [3] | fold more potent than 12a, HeLa nuclear extract HDACs [4] | histone H4 acetylation (immunoblot) [5] | IC50 [6] [nM] | fold activity difference between 12a and 12c, HDAC inhibitory activity [7] | anti-HDAC 8 activity, fold less than anti-HDAC 1 activity [8]
COc1cccc2c1C(=O)c1c(O)c3c(c(O)c1C2=O)C[C@@](O)(C(C)=O)C[C@@H]3O[C@H]1C[C@H](N)[C@H](O)[C@H](C)O1 [DAU, daunomycin, reference compound] | high levels | significant inhibition of Topo II activity | lowest levels of acetylation | severe impairment of DNA decatenation |  |  |  |  | 
COc1cccc2c1C(=O)c1c(O)c3c(c(O)c1C2=O)C[C@@](O)(C(C)=O)C[C@@H]3O[C@H]1C[C@H](NCc2ccc(-c3cn(CCCCCCCC(=O)NO)nn3)cc2)[C@H](O)[C@H](C)O1 [Compound 12d, Daunorubicin-N-benzyl-4-triazolyloctahydroxamic Acid] |  |  |  | lower Topo II inhibition activity | about 20 fold |  |  |  | 
COc1cccc2c1C(=O)c1c(O)c3c(c(O)c1C2=O)C[C@@](O)(C(C)=O)C[C@@H]3O[C@H]1C[C@H](NCc2ccc(-c3cn(CCCCCC(=O)NO)nn3)cc2)[C@H](O)[C@H](C)O1 [Compound 12b, Daunorubicin-N-benzyl-4-triazolylhexahydroxamic Acid] | significantly higher amount | drastic drop | robust acetylation | comparable levels to that of DAU |  | strong H4 acetylation |  |  | 
COc1cccc2c1C(=O)c1c(O)c3c(c(O)c1C2=O)C[C@@](O)(C(C)=O)C[C@@H]3O[C@H]1C[C@H](NCc2ccc(-c3cn(CCCCC(=O)NO)nn3)cc2)[C@H](O)[C@H](C)O1 [Compound 12a, Daunorubicin-N-benzyl-4-triazolylpentahydroxamic Acid] |  |  |  | lower Topo II inhibition activity |  |  | 600 |  | 
COc1cccc2c1C(=O)c1c(O)c3c(c(O)c1C2=O)C[C@@](O)(C(C)=O)C[C@@H]3O[C@H]1C[C@H](NCc2ccc(-c3cn(CCCCCCC(=O)NO)nn3)cc2)[C@H](O)[C@H](C)O1 [Compound 12c, Daunorubicin-N-benzyl-4-triazolylheptahydroxamic Acid] |  |  |  | near total inhibition |  |  |  | ~ 600 fold | 
COc1cccc2c1C(=O)c1c(O)c3c(c(O)c1C2=O)C[C@@](O)(C(C)=O)C[C@@H]3O[C@H]1C[C@H](NCc2ccc(NC(=O)CCCCCCC(=O)NO)cc2)[C@H](O)[C@H](C)O1 [Compound 7, Daunorubicin-N-benzyl-4-amino-8-oxooctahydroxamic Acid] | indistinguishable from that of the control cells | measured increase in Topo II inhibition | moderate levels of acetylation | comparable levels to that of DAU |  |  |  |  | about 4 fold
